In paper PMC12340637, “Transport of Small Aliphatic Amines by Polyspecific Solute Carriers: Deciphering Structure–Function Relationships” (ACS Pharmacology & Translational Science, 2025):
Like-named read-outs stand apart in the source and are kept apart here. Marks after values point to notes of the source that are not given here.

Experiments:
OCT3 (SLC22A3) = target: T1, OCT3 (SLC22A3) (Homo sapiens, UniProt O75751); experiment: Cellular uptake into OCT3-overexpressing HEK293 cells vs EV control cells (HPLC-MS/MS); details: for uptake ratio OCT3 (transporter-overexpressing cells over EV control cells): mean (±SD, N): 2 min, HEK293
T1 sequence (O75751 1-556): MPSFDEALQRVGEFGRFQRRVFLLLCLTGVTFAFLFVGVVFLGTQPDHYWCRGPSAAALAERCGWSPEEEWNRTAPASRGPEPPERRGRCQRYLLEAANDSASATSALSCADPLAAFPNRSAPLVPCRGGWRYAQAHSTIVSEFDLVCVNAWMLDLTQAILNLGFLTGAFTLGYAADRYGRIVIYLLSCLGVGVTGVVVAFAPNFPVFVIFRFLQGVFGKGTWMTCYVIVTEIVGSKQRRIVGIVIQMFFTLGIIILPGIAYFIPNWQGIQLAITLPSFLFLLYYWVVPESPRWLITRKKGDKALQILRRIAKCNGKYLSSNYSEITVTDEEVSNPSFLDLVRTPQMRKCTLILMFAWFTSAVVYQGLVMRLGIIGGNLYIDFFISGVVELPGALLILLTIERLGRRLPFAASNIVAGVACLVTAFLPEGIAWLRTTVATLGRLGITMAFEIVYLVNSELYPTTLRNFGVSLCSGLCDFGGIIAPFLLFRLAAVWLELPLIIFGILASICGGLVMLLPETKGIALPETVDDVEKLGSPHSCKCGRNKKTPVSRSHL

MATE2-K (SLC47A2) = MATE2-K (SLC47A2) (Homo sapiens, UniProt Q86VL8); experiment: Cellular uptake into MATE2-K-overexpressing HEK293 cells vs EV control cells (HPLC-MS/MS); details: for uptake ratio MATE2K (transporter-overexpressing cells over EV control cells): mean (±SD, N): 2.5 μM substrate, 1 min, 30 mM NH4Cl preincubation, HEK293
MATE2-K (SLC47A2), sequence (Q86VL8 1-566 isoform Q86VL8-3): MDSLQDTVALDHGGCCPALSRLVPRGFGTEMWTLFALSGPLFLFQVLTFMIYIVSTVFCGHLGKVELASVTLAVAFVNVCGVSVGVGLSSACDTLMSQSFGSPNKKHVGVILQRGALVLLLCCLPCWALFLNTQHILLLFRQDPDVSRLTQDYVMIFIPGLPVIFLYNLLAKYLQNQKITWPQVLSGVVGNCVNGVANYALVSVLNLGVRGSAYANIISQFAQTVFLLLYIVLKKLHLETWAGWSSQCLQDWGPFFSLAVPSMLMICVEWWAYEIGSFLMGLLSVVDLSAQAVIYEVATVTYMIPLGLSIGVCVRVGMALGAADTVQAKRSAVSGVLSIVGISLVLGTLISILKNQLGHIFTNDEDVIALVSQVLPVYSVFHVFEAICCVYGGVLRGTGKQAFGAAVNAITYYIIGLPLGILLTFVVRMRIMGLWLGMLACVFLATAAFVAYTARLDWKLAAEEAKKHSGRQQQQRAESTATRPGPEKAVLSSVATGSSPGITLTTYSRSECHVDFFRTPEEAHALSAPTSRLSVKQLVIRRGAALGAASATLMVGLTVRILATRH

MATE1 (SLC47A1) = target: T2, MATE1 (SLC47A1) (Homo sapiens, UniProt Q96FL8); experiment: Cellular uptake into MATE1-overexpressing HEK293 cells vs EV control cells (HPLC-MS/MS); details: for uptake ratio MATE1 (transporter-overexpressing cells over EV control cells): mean (±SD, N): 2.5 μM substrate, 1 min, 30 mM NH4Cl preincubation, HEK293
T2 sequence (Q96FL8 1-570): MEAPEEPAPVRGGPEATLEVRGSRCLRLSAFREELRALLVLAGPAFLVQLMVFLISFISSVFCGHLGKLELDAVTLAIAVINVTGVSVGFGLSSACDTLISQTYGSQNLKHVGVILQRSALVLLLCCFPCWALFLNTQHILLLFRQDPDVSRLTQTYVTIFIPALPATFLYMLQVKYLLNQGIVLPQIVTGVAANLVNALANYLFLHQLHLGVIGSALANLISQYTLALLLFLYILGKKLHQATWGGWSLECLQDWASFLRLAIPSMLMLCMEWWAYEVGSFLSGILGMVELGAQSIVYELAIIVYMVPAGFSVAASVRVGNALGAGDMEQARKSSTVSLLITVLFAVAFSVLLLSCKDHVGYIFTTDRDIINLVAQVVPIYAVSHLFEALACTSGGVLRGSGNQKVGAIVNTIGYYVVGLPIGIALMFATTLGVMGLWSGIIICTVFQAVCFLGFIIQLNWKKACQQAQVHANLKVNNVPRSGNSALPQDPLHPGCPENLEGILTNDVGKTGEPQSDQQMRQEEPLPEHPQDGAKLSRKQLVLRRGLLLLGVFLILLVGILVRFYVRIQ

OCT2 (SLC22A2) = target: T3, OCT2 (SLC22A2) (Homo sapiens, UniProt O15244); experiment: Cellular uptake into OCT2-overexpressing HEK293 cells vs EV control cells (HPLC-MS/MS); details: for uptake ratio OCT2 (transporter-overexpressing cells over EV control cells): mean (±SD, N): 2 min, HEK293; for v max (±SEM) / K m (±SEM): OCT2, net uptake, Michaelis–Menten
T3 sequence (O15244 1-555): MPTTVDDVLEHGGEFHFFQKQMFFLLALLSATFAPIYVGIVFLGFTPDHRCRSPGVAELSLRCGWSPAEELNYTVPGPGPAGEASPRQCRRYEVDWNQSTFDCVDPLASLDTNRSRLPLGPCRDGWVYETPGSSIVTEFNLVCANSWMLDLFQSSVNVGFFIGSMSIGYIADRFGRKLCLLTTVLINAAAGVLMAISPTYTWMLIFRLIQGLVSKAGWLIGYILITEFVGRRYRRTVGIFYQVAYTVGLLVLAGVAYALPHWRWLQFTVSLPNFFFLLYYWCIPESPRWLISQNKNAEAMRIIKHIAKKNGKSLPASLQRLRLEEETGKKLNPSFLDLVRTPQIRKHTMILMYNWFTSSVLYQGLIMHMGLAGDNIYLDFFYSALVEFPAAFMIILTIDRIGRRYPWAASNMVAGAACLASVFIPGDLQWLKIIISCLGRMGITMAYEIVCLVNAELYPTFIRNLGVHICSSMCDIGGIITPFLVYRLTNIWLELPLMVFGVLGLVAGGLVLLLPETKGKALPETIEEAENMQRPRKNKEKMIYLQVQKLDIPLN

OCT1 (SLC22A1) = target: T4, OCT1 (SLC22A1) (Homo sapiens, UniProt O15245); experiment: Cellular uptake into OCT1-overexpressing HEK293 cells vs EV control cells (HPLC-MS/MS); details: for uptake ratio OCT1 (transporter-overexpressing cells over EV control cells): mean (±SD, N): 2 min, HEK293
T4 sequence (O15245 1-554): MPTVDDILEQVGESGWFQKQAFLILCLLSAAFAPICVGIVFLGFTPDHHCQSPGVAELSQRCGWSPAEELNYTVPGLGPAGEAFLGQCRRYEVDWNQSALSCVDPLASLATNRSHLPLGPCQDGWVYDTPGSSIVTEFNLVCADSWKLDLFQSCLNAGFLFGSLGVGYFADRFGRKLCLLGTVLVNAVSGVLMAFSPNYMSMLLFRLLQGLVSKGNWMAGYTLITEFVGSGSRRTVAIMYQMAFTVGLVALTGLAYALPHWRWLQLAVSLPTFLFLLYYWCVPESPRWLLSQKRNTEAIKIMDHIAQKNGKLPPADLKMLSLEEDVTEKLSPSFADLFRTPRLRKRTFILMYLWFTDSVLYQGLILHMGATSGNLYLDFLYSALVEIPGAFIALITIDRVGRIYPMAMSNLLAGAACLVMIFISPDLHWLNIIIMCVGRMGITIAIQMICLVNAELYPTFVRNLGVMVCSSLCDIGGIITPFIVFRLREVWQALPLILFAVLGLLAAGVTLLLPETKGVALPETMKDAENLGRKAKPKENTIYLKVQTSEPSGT

[1] = OCT1, net uptake, Michaelis–Menten
[2] = MATE1, net uptake, Michaelis–Menten

SMILES	uptake ratio OCT3 (transporter-overexpressing cells over EV control cells): mean (±SD, N) (OCT3 (SLC22A3); 10 μM substrate)	uptake ratio MATE2K (transporter-overexpressing cells over EV control cells): mean (±SD, N) (MATE2-K (SLC47A2))	uptake ratio MATE1 (transporter-overexpressing cells over EV control cells): mean (±SD, N) (MATE1 (SLC47A1))	uptake ratio OCT2 (transporter-overexpressing cells over EV control cells): mean (±SD, N) (OCT2 (SLC22A2); 10 μM substrate)	also measured
CCN(CC)CCO [2-(diethylamino)ethanol]	1.2 (0.1, 3)	1.4 (0.2, 3)	1 (0.13, 3)	4.0 (1.5, 3)	v max (±SEM) (OCT2 (SLC22A2)): 794 (±109) pmol/mg protein/min
C[C@H](N)CCO [(S)-3-aminobutan-1-ol]	–	–	–	–	stereoselectivity OCT3 (uptake ratio of the more strongly transported enantiomer divided by that of the other) (OCT3 (SLC22A3); label = favoured enantiomer): 1.2-fold for (S)
CCN(CC)CC [triethylamine]	0.8 (0.3, 4)	1.1 (0.2, 3)	0.8 (0.2, 3)	5.0 (1.3, 4) ^b	uptake ratio OCT1 (transporter-overexpressing cells over EV control cells): mean (±SD, N) (OCT1 (SLC22A1); 10 μM substrate): 1.2 (0.1, 4); v max (±SEM) (OCT2 (SLC22A2)): 1053 (±206) pmol/mg protein/min
CC(C)(C)N [tert-butylamine]	1.3 (0.5, 3)	1.0 (0.2, 3)	1.3 (0.3, 3)	3.8 (1.6, 4) ^a	–
CCCCCCN [hexylamine]	0.6 (0.2, 4) ^a	1.2 (0.6, 5)	0.8 (0.2, 4)	1.6 (0.4, 4)	uptake ratio OCT1 (transporter-overexpressing cells over EV control cells): mean (±SD, N) (OCT1 (SLC22A1); 10 μM substrate): 1.8 (1.4, 5)
CCCCCCCN [heptylamine]	1.85 (1.17, 6)	1.4 (0.3, 4)	1.0 (0.3, 4)	4.2 (3.1, 6) ^a	uptake ratio OCT1 (transporter-overexpressing cells over EV control cells): mean (±SD, N) (OCT1 (SLC22A1); 10 μM substrate): 2.5 (1.9, 6)
CCC(C)(C)N [tert-amylamine]	–	1.0 (0.1, 3)	0.9 (0.2, 3)	–	uptake ratio OCT1 (transporter-overexpressing cells over EV control cells): mean (±SD, N) (OCT1 (SLC22A1); 2.5 μM substrate (§)): 1.0 (0.3, 3); uptake ratio OCT3 (transporter-overexpressing cells over EV control cells): mean (±SD, N) (OCT3 (SLC22A3); 2.5 μM substrate (§)): 0.8 (0.1, 3); uptake ratio OCT2 (transporter-overexpressing cells over EV control cells): mean (±SD, N) (OCT2 (SLC22A2); 2.5 μM substrate (§)): 4.7 (2.1, 3)
NCCCCO [4-amino-1-butanol]	–	0.9 (0.3, 3)	1.0 (0.01, 3)	–	uptake ratio OCT1 (transporter-overexpressing cells over EV control cells): mean (±SD, N) (OCT1 (SLC22A1); 2.5 μM substrate (§)): 1.1 (0.3, 3); uptake ratio OCT3 (transporter-overexpressing cells over EV control cells): mean (±SD, N) (OCT3 (SLC22A3); 2.5 μM substrate (§)): 1.1 (0.3, 3); uptake ratio OCT2 (transporter-overexpressing cells over EV control cells): mean (±SD, N) (OCT2 (SLC22A2); 2.5 μM substrate (§)): 5.4 (1.1, 3) ^a; K m (±SEM) (OCT2 (SLC22A2)): 1243 (±938) μM; v max (±SEM) (OCT2 (SLC22A2)): 3103 (±1458) pmol/mg protein/min
CC(N)CCCC(C)(C)O (centres unmarked) [heptaminol]	–	1.0 (0.2, 3)	6.6 (1.3, 3) ^a	–	uptake ratio OCT1 (transporter-overexpressing cells over EV control cells): mean (±SD, N) (OCT1 (SLC22A1); 2.5 μM substrate (§)): 11.3 (4.6, 3); K m (±SEM) (OCT1 (SLC22A1); [1]): 241 (±68) μM; v max (±SEM) (OCT1 (SLC22A1); [1]): 1480 (±174) pmol/mg protein/min; uptake ratio OCT3 (transporter-overexpressing cells over EV control cells): mean (±SD, N) (OCT3 (SLC22A3); 2.5 μM substrate (§)): 1.1 (0.29, 4); K m (±SEM) (MATE1 (SLC47A1); [2]): 154 (±18) μM; v max (±SEM) (MATE1 (SLC47A1); [2]): 8061 (±283) pmol/mg protein/min; CLint of MATE1 higher than that of OCT1 (MATE1 (SLC47A1); MATE1 vs OCT1): 6.0 fold; CLint of MATE1 higher than that of OCT2 (MATE1 (SLC47A1); MATE1 vs OCT2): 3.7 fold; uptake ratio OCT2 (transporter-overexpressing cells over EV control cells): mean (±SD, N) (OCT2 (SLC22A2); 2.5 μM substrate (§)): 8.7 (5.0, 3); K m (±SEM) (OCT2 (SLC22A2)): 1089 (±213) μM; v max (±SEM) (OCT2 (SLC22A2)): 9730 (±1210) pmol/mg protein/min
CN(CCCN)CCCN [3,3′-diamino-N-methyldipropylamin]	–	–	–	–	substrate activity at OCT1 (in words) (OCT1 (SLC22A1)): did not show any substrate activity; substrate activity at OCT3 (in words) (OCT3 (SLC22A3)): did not show any substrate activity; substrate activity at MATE2-K (in words) (MATE2-K (SLC47A2)): did not show any substrate activity
CC(C)N [isopropylamine]	1.0 (0.2, 3)	–	1.4 (0.2, 3)	5.3 (1.7, 3) ^a	uptake ratio OCT1 (transporter-overexpressing cells over EV control cells): mean (±SD, N) (OCT1 (SLC22A1); 10 μM substrate): 1.3 (0.2, 3)
NCCCCNCCCN [spermidine-(butyl-d8)]	–	0.8 (0.1, 3)	1.0 (0.4, 3)	–	–
NCCN(CCN)CCN [tris(2-aminoethyl)amine]	–	–	–	–	substrate activity at OCT3 (in words) (OCT3 (SLC22A3); uptake ratio ≥2 = notable transport): did not show any substrate activity
CCCCN [butylamine]	1.5 (1.0, 5)	1.2 (0.3, 4)	1.0 (0.1, 4)	6.4 (2.0, 5) ^b	–
